Measured values taken from US11739070B2, “C5A receptor modulators” (IDORSIA PHARMACEUTICALS LTD, priority 2018, dated 2023).

These compounds were tested against T1, C5AR1 (Homo sapiens, UniProt P21730) (assay: hC5a DISCO IC50 assay (PathHunter beta-arrestin, antagonist mode)). Settings: CHO-K1 C5AR1 beta-arrestin cell line; antagonist vs 1-10 nM C5a agonist; geometric mean values; read-out: C5aR IC50.
T1 construct: host or cells: CHO-K1
T1 sequence (P21730 1-350): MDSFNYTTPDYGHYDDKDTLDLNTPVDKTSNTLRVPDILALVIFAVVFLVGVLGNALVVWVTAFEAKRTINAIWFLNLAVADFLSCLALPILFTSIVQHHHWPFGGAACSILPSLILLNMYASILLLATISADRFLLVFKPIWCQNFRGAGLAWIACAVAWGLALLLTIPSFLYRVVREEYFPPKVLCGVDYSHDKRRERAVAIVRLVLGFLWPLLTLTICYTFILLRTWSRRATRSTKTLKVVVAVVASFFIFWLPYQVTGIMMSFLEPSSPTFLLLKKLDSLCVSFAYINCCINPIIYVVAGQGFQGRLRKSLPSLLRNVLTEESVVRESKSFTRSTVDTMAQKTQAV
Assay type: cell-based
Method: II. Biological Assays In Vitro Assay hC5a DISCO IC50 Assay
5 μl Antagonist at 6-fold end concentration or DMSO control is added to assay medium and subsequently 5 μl 1-10 nM C5a agonist at 6 fold end concentration. Cells are centrifuged for 1 min at 1000 rpm and incubated for 1.5 hour in at 37° C. Plates are equilibrated at room temperature for several minutes before adding 12 μl/well Detection Reagent (PathHunter Detection Kit, DiscoverX, Cat #93-0001). Plates are centrifuged for 1 min at 1000 rpm and incubated for 45 minutes at RT before being measured on a Fluostar Optima, BMG Labtech. IC50 values are calculated from a serial dilution range of antagonist using inhouse software and given in nmol/l.
The calculated IC50 values may fluctuate depending on the daily cellular assay performance. Fluctuations of this kind are known to those skilled in the art. Average IC50 values from several measurements are given as geometric mean values.

IC50 | SMILES
139 nM | COc1cccc2c1n(Cc1ccccc1C(F)(F)F)c(=O)n2[C@H]1CN(C(=O)OC(C)(C)C)C[C@@H]1C (relative stereo) [Example 196, (3R*,4S*)-3-[4-Methoxy-2-oxo-3-(2-trifluoromethyl-benzyl)-2,3-dihydro-benzoimidazol-1-yl]-4-methyl-pyrrolidine-1-carboxylic acid tert-butyl ester]
15 nM | COc1cccc2c1n(Cc1ccccc1C(F)(F)F)c(=O)n2[C@H]1CN(c2c(C)cccc2F)C[C@@H]1C (relative stereo) [Example 198, 1-[(3R*,4S*)-1-(2-Fluoro-6-methyl-phenyl)-4-methyl-pyrrolidin-3-yl]-4-methoxy-3-(2-trifluoromethyl-benzyl)-1,3-dihydro-benzoimidazol-2-one]
119 nM | COc1cccc2c1n(Cc1ccccc1C(F)(F)F)c(=O)n2[C@H]1CN(C(=O)OC(C)(C)C)C[C@H]1C (relative stereo) [Example 199, (3R*,4R*)-3-[4-Methoxy-2-oxo-3-(2-trifluoromethyl-benzyl)-2,3-dihydro-benzoimidazol-1-yl]-4-methyl-pyrrolidine-1-carboxylic acid tert-butyl ester]
19 nM | COc1cccc2c1n(Cc1ccccc1C(F)(F)F)c(=O)n2[C@H]1CN(c2c(C)cccc2F)C[C@H]1C (relative stereo) [Example 200, 1-[(3R*,4R*)-1-(2-Fluoro-6-methyl-phenyl)-4-methyl-pyrrolidin-3-yl]-4-methoxy-3-(2-trifluoromethyl-benzyl)-1,3-dihydro-benzoimidazol-2-one]
621 nM | COc1cccc2c1n(Cc1ccccc1C(F)(F)F)c(=O)n2C1CCN(C(=O)OC(C)(C)C)CC1 [Example 1, 4-[4-Methoxy-2-oxo-3-(2-trifluoromethyl-benzyl)-2,3-dihydro-benzoimidazol-1-yl]-piperidine-1-carboxylic acid tert-butyl ester]
18 nM | COc1cccc2c1n(Cc1ccccc1C(F)(F)F)c(=O)n2C1CCN(c2c(C)cccc2C)CC1 [Example 2, 1-[1-(2,6-Dimethyl-phenyl)-piperidin-4-yl]-4-methoxy-3-(2-trifluoromethyl-benzyl)-1,3-dihydro-benzoimidazol-2-one]
23 nM | [2H]c1ccc(OC)c2c1n(C1CCN(c3c(C)cccc3C)CC1)c(=O)n2Cc1ccccc1C(F)(F)F [Example 3, 1-(1-(2,6-dimethylphenyl)piperidin-4-yl)-4-methoxy-3-(2-(trifluoromethyl)benzyl)-1,3-dihydro-benzoimidazol-2-one-7-d]
131 nM | COc1cccc2c1n(Cc1ccccc1C(F)(F)F)c(=O)n2C1CCN(c2ccccc2)CC1 [Example 4, 4-Methoxy-1-(1-phenyl-piperidin-4-yl)-3-(2-trifluoromethyl-benzyl)-1,3-dihydro-benzoimidazol-2-one]
284 nM | COc1cccc2c1n(Cc1ccccc1C(F)(F)F)c(=O)n2C1CCN(Cc2ccc(Cl)cc2Cl)CC1 [Example 5, 1-[1-(2,4-Dichloro-benzyl)-piperidin-4-yl]-4-methoxy-3-(2-trifluoromethyl-benzyl)-1,3-dihydro-benzoimidazol-2-one]
66 nM | COc1cccc2c1n(Cc1ccccc1C(F)(F)F)c(=O)n2[C@@H]1CCN(C(=O)OC(C)(C)C)C1 [Example 6, (R)-3-[4-Methoxy-2-oxo-3-(2-trifluoromethyl-benzyl)-2,3-dihydro-benzoimidazol-1-yl]-pyrrolidine-1-carboxylic acid tert-butyl ester]
11 nM | COc1cccc2c1n(Cc1ccccc1C(F)(F)F)c(=O)n2[C@@H]1CCN(c2c(F)cccc2F)C1 [Example 7, 1-[(R)-1-(2,6-Difluoro-phenyl)-pyrrolidin-3-yl]-4-methoxy-3-(2-trifluoromethyl-benzyl)-1,3-dihydro-benzoimidazol-2-one]
32 nM | COc1cccc2c1n(Cc1ccccc1C(F)(F)F)c(=O)n2C1CCN(c2c(F)cccc2F)CC1 [Example 9, 1-[1-(2,6-Difluoro-phenyl)-piperidin-4-yl]-4-methoxy-3-(2-trifluoromethyl-benzyl)-1,3-dihydro-benzoimidazol-2-one]
216 nM | COc1cccc2c1n(Cc1ccccc1C(F)(F)F)c(=O)n2C1CCN(c2c(C=O)c(C3CC3)nn2C)CC1 [Example 14, 3-Cyclopropyl-5-{4-[4-methoxy-2-oxo-3-(2-trifluoromethyl-benzyl)-2,3-dihydro-benzoimidazol-1-yl]-piperidin-1-yl}-1-methyl-1H-pyrazole-4-carbaldehyde]
19 nM | COc1ccccc1N1CC[C@@H](n2c(=O)n(Cc3ccccc3C(F)(F)F)c3c(OC)cccc32)C1 [Example 16, 4-Methoxy-1-[(R)-1-(2-methoxy-phenyl)-pyrrolidin-3-yl]-3-(2-trifluoromethyl-benzyl)-1,3-dihydro-benzoimidazol-2-one]
36 nM | COc1cccc2c1n(Cc1ccccc1OC(F)(F)F)c(=O)n2[C@@H]1CCN(C(=O)OC(C)(C)C)C1 [Example 20, (R)-3-[4-Methoxy-2-oxo-3-(2-trifluoromethoxy-benzyl)-2,3-dihydro-benzoimidazol-1-yl]-pyrrolidine-1-carboxylic acid tert-butyl ester]
3440 nM | COc1cccc2c1n(Cc1ccccc1C(F)(F)F)c(=O)n2C1CCN(c2cc(C3CC3)nn2C)CC1 [Example 21, 1-[1-(5-Cyclopropyl-2-methyl-2H-pyrazol-3-yl)-piperidin-4-yl]-4-methoxy-3-(2-trifluoromethyl-benzyl)-1,3-dihydro-benzoimidazol-2-one]
30 nM | COc1cccc2c1n(Cc1ccccc1OC(F)(F)F)c(=O)n2[C@@H]1CCN(c2c(C)cccc2C)C1 [Example 22, 1-[(R)-1-(2,6-Dimethyl-phenyl)-pyrrolidin-3-yl]-4-methoxy-3-(2-trifluoromethoxy-benzyl)-1,3-dihydro-benzoimidazol-2-one]
8 nM | COc1cccc2c1n(Cc1ccccc1OC(F)(F)F)c(=O)n2[C@@H]1CCN(c2c(F)cccc2F)C1 [Example 23, 1-[(R)-1-(2,6-Difluoro-phenyl)-pyrrolidin-3-yl]-4-methoxy-3-(2-trifluoromethoxy-benzyl)-1,3-dihydro-benzoimidazol-2-one]
330 nM | COc1cccc2c1n(Cc1ccccc1C(F)(F)F)c(=O)n2C1CCN(c2c(Cl)c(C3CC3)nn2C)CC1 [Example 24, 1-[1-(4-Chloro-5-cyclopropyl-2-methyl-2H-pyrazol-3-yl)-piperidin-4-yl]-4-methoxy-3-(2-trifluoromethyl-benzyl)-1,3-dihydro-benzoimidazol-2-one]
185 nM | COc1cccc2c1n(Cc1ccccc1C(F)(F)F)c(=O)n2C1CCN(c2c(C)c(C3CC3)nn2C)CC1 [Example 25, 1-[1-(5-Cyclopropyl-2,4-dimethyl-2H-pyrazol-3-yl)-piperidin-4-yl]-4-methoxy-3-(2-trifluoromethyl-benzyl)-1,3-dihydro-benzoimidazol-2-one]
459 nM | COC(=O)N1CC[C@@H](n2c(=O)n(Cc3ccccc3C(F)(F)F)c3c(OC)cccc32)C1 [Example 26, (R)-3-[4-Methoxy-2-oxo-3-(2-trifluoromethyl-benzyl)-2,3-dihydro-benzoimidazol-1-yl]-pyrrolidine-1-carboxylicacid methyl ester]
3340 nM | COc1cccc2c1n(Cc1ccccc1C(F)(F)F)c(=O)n2[C@@H]1CCN(C(=O)c2ccccc2)C1 [Example 27, 1-((R)-1-Benzoyl-pyrrolidin-3-yl)-4-methoxy-3-(2-trifluoromethyl-benzyl)-1,3-dihydro-benzoimidazol-2-one]
1330 nM | COc1cccc2c1n(Cc1ccccc1C(F)(F)F)c(=O)n2C1CCN(C(=O)C(C)(C)C)CC1 [Example 28, 1-[1-(2,2-Dimethyl-propionyl)-piperidin-4-yl]-4-methoxy-3-(2-trifluoromethyl-benzyl)-1,3-dihydro-benzoimidazol-2-one]
182 nM | COC(=O)N1CCC(n2c(=O)n(Cc3ccccc3C(F)(F)F)c3c(OC)cccc32)CC1 [Example 29, 4-[4-Methoxy-2-oxo-3-(2-trifluoromethyl-benzyl)-2,3-dihydro-benzoimidazol-1-yl]-piperidine-1-carboxylic acid methyl ester]
1520 nM | COc1cccc2c1n(Cc1ccccc1C(F)(F)F)c(=O)n2C1CCN(C(=O)c2ccccc2)CC1 [Example 30, 1-(1-Benzoyl-piperidin-4-yl)-4-methoxy-3-(2-trifluoromethyl-benzyl)-1,3-dihydro-benzoimidazol-2-one]
3450 nM | COc1cccc2c1n(Cc1ccccc1C(F)(F)F)c(=O)n2[C@@H]1CCN(C)C1 [Example 31, 4-Methoxy-1-((R)-1-methyl-pyrrolidin-3-yl)-3-(2-trifluoromethyl-benzyl)-1,3-dihydro-benzoimidazol-2-one]
642 nM | COc1cccc2c1n(Cc1ccccc1C(F)(F)F)c(=O)n2[C@@H]1CCN(C(C)C)C1 [Example 32, 1-((R)-1-Isopropyl-pyrrolidin-3-yl)-4-methoxy-3-(2-trifluoromethyl-benzyl)-1,3-dihydro-benzoimidazol-2-one]
